Reference: US6984636B2, “Mitochondrially targeted antioxidants” (Medical Research Council, priority 2002, dated 2006)

Assays:
[1] = system: xanthine oxidase; experiment: Control experiments for inhibition of xanthine oxidase; assay type: biochemical
[2] = system: superoxide; experiment: Standard assay for superoxide dismutase activity (xanthine oxidase/hypoxanthine, acetylated cytochrome c reduction, A550); assay type: biochemical
Method: To see if Compound 9 is catalytically active as a superoxide dismutase mimetic, a standard assay for superoxide dismutase activity was used (Boveris, A., Methods Enzymol., 105, 429-435 (1984), which is incorporated herein by reference).
The incubation conditions were 50 mM KPi, pH 7.5; 1 mM EGTA; 100 μM DTPA (N,N-bis(2-bis[carboxymethyl]amino)ethyl) glycine) at 30° C. to which was added 0.1 unit/ml xanthine oxidase and acetylated cytochrome c (50 μM). After incubation for 2 min, the background rate was measured for 1 min then hypoxanthine (100 μM) was added to initiate superoxide formation (point X in FIG. 2), which provides a continual flux. The rate of superoxide formation is measured by the rate at which the superoxide reduced cytochrome c(III) to cytochrome c(II), which leads to an increase in light absorption at 550 nm (A550). SOD activity causes the superoxide to be converted to hydrogen peroxide thereby decreasing the rate of reduction of cytochrome c (III). In FIG. 2, the initial rate of reduction of cytochrome c (III) can be seen (line A) and on addition of compound 9 (250 nM) this rate of cytochrome c reduction was decreased due to consumption of the superoxide by compound 9 (line B).
The above experiments were repeated using various concentrations of Compound 9 and the native superoxide dismutase (Cu, Zn SOD) in order to compare their activity.

[3] = system: rat liver mitochondria; experiment: Accumulation of Compound 9 in isolated mitochondria (ion selective electrode); assay type: in vitro ADME
Method: Liver mitochondria were prepared from female Wistar rats by homogenisation followed by differential centrifugation in medium containing 250 mM sucrose, 10 mM Tris-HCL (pH 7.4) and 1 mM EGTA (Chappell, J. B. and Hansford, R. G., In: Subcellular components: preparation and fractionation (Ed. Birnie G D), pp. 77-91. Butterworths, London, 1972, which is incorporated herein by reference.)
An ion selective electrode for compound 9 was prepared by standard procedures (Kamo, N., et al., Journal of Membrane Biology, 49, 105-121 (1979) and Davey, G. P., et al., Biochemical Journal, 288, 439-443 (1992), which are incorporated herein by reference), and activated by soaking in 100 μM compound 9 for 1-3 days. The electrodes were then inserted into an air-tight chamber of an oxygen electrode enabling simultaneous measurement of oxygen consumption and compound 9, as shown in FIG. 1.
The rat liver mitochondria (2 mg protein/ml) were suspended in KCl medium (120 mM KCl, 10 mM HEPES, pH 7.2, 1 mM EGTA) with additions of rotenone (5 μg/ml) and nigericin (0.6 nM) in a stirred 3 ml system at 30° C. Compound 9 was titrated in 1 μM increments (from 650 to 730s on FIG. 1) and the response of the electrode measured over 0-5 μM of Compound 9. This response was logarithmic with respect to the concentration of Compound 9.
To energise the mitochondria, the respiratory substrate succinate (5 mM) was added (at 800s on FIG. 1). These conditions are known to generate a mitochondrial membrane potential of about 180 mV (Burns, et al., Arch Biochem Biophys, 332,60-68 (1995); Burns and Murphy, Arch Biochem Biophys, 339, 33-39 (1997), which are incorporated herein by reference).

Sequence of xanthine oxidase (P47989 whole entry, species assumed): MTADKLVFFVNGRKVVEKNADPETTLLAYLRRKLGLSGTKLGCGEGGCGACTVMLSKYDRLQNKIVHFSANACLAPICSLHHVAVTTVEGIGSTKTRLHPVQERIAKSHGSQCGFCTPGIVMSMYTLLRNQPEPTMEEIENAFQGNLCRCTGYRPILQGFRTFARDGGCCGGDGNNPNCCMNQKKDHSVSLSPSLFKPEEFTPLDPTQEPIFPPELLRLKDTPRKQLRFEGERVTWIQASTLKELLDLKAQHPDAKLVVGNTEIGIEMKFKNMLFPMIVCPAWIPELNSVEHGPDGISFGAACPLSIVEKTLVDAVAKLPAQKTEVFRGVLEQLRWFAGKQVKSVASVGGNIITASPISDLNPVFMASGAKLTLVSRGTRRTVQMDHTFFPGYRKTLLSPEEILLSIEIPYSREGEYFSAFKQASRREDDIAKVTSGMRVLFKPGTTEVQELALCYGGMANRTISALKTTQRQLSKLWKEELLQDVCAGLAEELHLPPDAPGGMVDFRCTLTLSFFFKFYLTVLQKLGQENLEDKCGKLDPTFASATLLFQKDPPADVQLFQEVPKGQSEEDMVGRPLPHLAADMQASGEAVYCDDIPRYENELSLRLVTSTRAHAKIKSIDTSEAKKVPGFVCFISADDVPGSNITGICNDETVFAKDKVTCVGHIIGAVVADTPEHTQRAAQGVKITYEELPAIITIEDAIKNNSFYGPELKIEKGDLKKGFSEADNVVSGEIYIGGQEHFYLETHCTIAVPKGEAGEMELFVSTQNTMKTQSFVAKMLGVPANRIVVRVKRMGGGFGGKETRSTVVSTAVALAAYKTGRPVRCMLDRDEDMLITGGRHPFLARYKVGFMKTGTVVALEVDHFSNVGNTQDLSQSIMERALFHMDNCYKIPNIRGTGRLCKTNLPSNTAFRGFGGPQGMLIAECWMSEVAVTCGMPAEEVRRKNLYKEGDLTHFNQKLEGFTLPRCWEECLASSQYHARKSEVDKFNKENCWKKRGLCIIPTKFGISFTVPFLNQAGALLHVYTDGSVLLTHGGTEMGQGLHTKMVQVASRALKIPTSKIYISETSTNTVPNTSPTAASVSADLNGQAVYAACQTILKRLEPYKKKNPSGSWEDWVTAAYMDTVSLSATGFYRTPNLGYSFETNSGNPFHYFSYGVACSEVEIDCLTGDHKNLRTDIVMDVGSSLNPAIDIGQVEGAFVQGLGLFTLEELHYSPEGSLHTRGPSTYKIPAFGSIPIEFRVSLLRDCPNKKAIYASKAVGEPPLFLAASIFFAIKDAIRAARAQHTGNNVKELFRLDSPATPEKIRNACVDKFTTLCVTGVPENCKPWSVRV

SMILES: [Cl-].[Cl-].[Cl-].[Mn+2].c1ccc([P+](CCCSc2cc3nc(c2)CNC2CCCCC2NCCNC2CCCCC2NC3)(c2ccccc2)c2ccccc2)cc1 [Compound 9, Manganese(II) dichloro((4R, 9R, 14R, 19R)-24-(3-triphenylphosphoniopropane-1-thio)-3, 10, 13, 20, 26-pentaazatetracyclo[20.3.1.0.^4,9.0^14,19]hexacosa-1 (26),-22(23),24-triene) chloride]
- inhibition of the activity of xanthine oxidase [1]: does not inhibit
- rate of cytochrome c reduction ([2]; compound 9 at 250 nM, FIG. 2 line B versus control line A): decreased
- SOD activity of 1 nmol compound expressed as activity of the native enzyme CuZnSOD ([2]; per 1 nmol Compound 9, various concentrations, FIG. 3): about 1 unit
- time for reversal of accumulation on addition of the uncoupler FCCP ([3]; FCCP 332 nM added to dissipate the membrane potential): < 10 s
- concentration of the compound within mitochondria ([3]; energised (succinate 5 mM) rat liver mitochondria 2 mg protein/ml, KCl medium pH 7.2, 30° C., 0-5 μM compound): about 1.25 nmol/mg protein
- accumulation by energised mitochondria ([3]; energised rat liver mitochondria, membrane potential about 180 mV): ~500 fold
- concentration of compound outside the mitochondria after energising with succinate ([3]; succinate 5 mM added, FIG. 1): falls rapidly
